{"source": "patent US4732893A", "about": "“Amino-anthracenediones-platinum complexes useful as anticancer compounds” (priority 1984, dated 1988)", "key": {"[1]": {"test_system": "c-DDP resistant L-1210 leukemia", "assay": "c-DDP resistant L-1210 leukemia, T/C, LTS, TOX", "assay_type": "in vivo, mice", "from_the_text": "(§1) T/C percentage represents the percentual ratio of the mean survival time of the treated animals in comparison with the mean survival time of the control animals according to the methods described in \"Anthracycline antibiotics\" H. S. E. R Rhadem Edit., Academic Press, 1982.\n(§2) (1) T/C: Mean survival time of treated mice/mean survival time of control\n(untreated) mice × 100. Mean survival time of treated mice is\nreferred to dying animals only. N.ev.: not evaluable as consequence of th\n(2) LTS: Longterms survivors (>30 days), i.e. cured animals.\n(§3) (3) TOX: Toxic deaths are referred to animals dead before control animals\n(§4) or to animals showing macroscopic toxic symptoms without tumor."}, "L-1210 leukemia": {"test_system": "L-1210 leukemia", "assay": "first experiment: L-1210 leukemia in mice, T/C percentage and long term survival", "assay_type": "in vivo", "details": "21 × 10^-6 moles/kg (c-DDP 7.00 mg/kg)", "experimental": "Pt(DMSO)Cl2 ].2HCl.H2 O (coded BBR 1651), water soluble, and cis-[1,4-bis-[2-(2-hydroxyethylamino)ethylamino]-5,8-dihydroxy-9,10-anthracenedione.PtCl2 ].2HCl.H2 O (coded BBR 1734) are tested in comparison with equimolecular dosages of 1,4-bis-[2-(2-hydroxyethylamino)ethylamino]-5,8-dihydroxy-9,10-anthracenedione (DHAQ.2HCl) and with c-DDP dosed at 7 mg/kg, against L-1210 leukemia in mice. Groups of 10 animals, treated with intraperitoneal injections of […] L-1210 cells, have been used at each dosage level, evaluating T/C percentage and long term survival, i.e. more than sixty days.\nas §1\n(§5) LTS represents number of long-term (over 60 days) surviving animals with no pathologic episodes (i.e. cured animals).\nA percentage of T/C over 120 indicates antitumoral activity; a percentage of T/C under 85 indicates toxicity."}, "[2]": {"test_system": "genito-urinary tumors, head and neck cancer, osteogenic sarcoma", "details": "human, in vivo; cited from earlier work"}, "[3]": {"test_system": "L-1210 leukemia sensitive to c-DDP", "assay": "second experiment: L-1210 leukemia sensitive to c-DDP, T/C, LTS, TOX", "assay_type": "in vivo, mice", "details": "for T/C (1) %: range in parenthesis", "from_the_text": "as §1, §5, §2\n(untreated) mice × 100.\nMean survival time of treated mice is referred to dying animals only.\n(2) LTS: Longterm survivors (>60 days), i.e. cured animals. Mean survival\nas §3, §4\nThe data reported in Table 2 are the means of two subsequent experiments."}, "[4]": {"details": "21 × 10^-6/kg (c-DDP 7.1 mg/kg)"}, "[5]": {"details": "29.6 × 10^-6/kg (c-DDP 10.0 mg/kg)"}, "[6]": {"details": "21 × 10^-6 moles/kg (c-DDP 7.1 mg/kg)"}, "[7]": {"details": "29.2 × 10^-6 moles/kg (c-DDP 10.0 mg/kg)"}}, "data": [{"smiles": "N.N.[Cl][Pt][Cl]", "note": "[c-DDP, cis-diaminodichloroplatinum^II]", "values": [{"measurement": "LTS (2) (>30 days)", "setting": "[1]; [4]", "result": "0/10"}, {"measurement": "T/C (1) %", "setting": "[1]; [4]", "result": 100, "unit": "%"}, {"measurement": "LTS (2) (>30 days)", "setting": "[1]; [5]", "result": "0/10"}, {"measurement": "T/C (1) %", "setting": "[1]; [5]", "result": 100, "unit": "%"}, {"measurement": "activity (in words)", "setting": "[1]; animals injected with cis-platin resistant leukemia cells", "result": "uneffective"}, {"measurement": "% T/C", "setting": "L-1210 leukemia", "result": 200, "unit": "%"}, {"measurement": "Survival after 60 days", "setting": "L-1210 leukemia; survivors/animals", "result": "0/10"}, {"measurement": "clinical activity (in words)", "setting": "[2]", "result": "activity is well demonstrated"}, {"measurement": "serious side effects (in words)", "setting": "[2]", "result": "gastrointestinal (nausea and vomiting often severe and prolungated), renal (dose-limiting renal insufficiency), hematological, neurological (ototoxicity) complications"}, {"measurement": "LTS (2) (>60 days)", "setting": "[3]; [6]", "result": "0/20"}, {"measurement": "T/C (1) %", "setting": "[3]; [6]", "result": "193 (187-200) %"}, {"measurement": "T/C (1) %", "setting": "[3]; 21 × 10^-6 moles/kg (c-DDP 7.1 mg/kg), listed as cis-platin", "result": 193, "unit": "%"}, {"measurement": "LTS (2) (>60 days)", "setting": "[3]; [7]", "result": "1/20"}, {"measurement": "T/C (1) %", "setting": "[3]; [7]", "result": "93 (87-100) %"}, {"measurement": "T/C percentage", "setting": "[3]; L-1210 leukemia (sensitive to Pt), c-DDP 7 mg/kg, BBR 1734 1.55 mg/kg, BBR 1735 8 mg/kg", "result": "~200"}]}]}
